Test results as given in patent US4076802A (priority 1977, dated 1978).
Values after ≈ are worked out from the molar mass of the structure shown. Where two headings read alike, the source gives them in different places.

Experiments:
[1] = Solubility in solvents; type: physicochemical
[2] = system: mice; assay: 24 hour acute toxicity in mice; type: in vivo
[3] = system: Candida albicans 155 (yeast); assay: Antifungal MIC, Table 5; type: cell-based; settings: Culture NRRL 477
[4] = system: Saccharomyces cerevisiae 90 (yeast); assay: Antifungal MIC, Table 5; type: cell-based; settings: Culture ATCC 4226
[5] = system: Paecilomyces varioti M16 (fungus); assay: Antifungal MIC, Table 5; type: cell-based; settings: Culture ATCC 26820
[6] = system: Penicillium digitatum 0184 (mold); assay: Antifungal MIC, Table 5; type: cell-based; settings: Culture ATCC 26821
[7] = system: Piricularia oryzae (rice blast disease); settings: in vivo
[8] = system: Puccinia species (cereal rust disease); assay: Activity against plant disease fungi on several crops; type: in vivo
[9] = system: Uromyces species (cereal rust disease); assay: as above; type: in vivo
[10] = system: Botrytis cinerea (grey mold diseases); assay: as above; type: in vivo
[11] = system: Rhizoctonia solani (damping off diseases); assay: as above; type: in vivo
[12] = system: Colorado potato beetle; assay: Larvicidal activity; type: in vivo
[13] = system: army worm; assay: Larvicidal activity; type: in vivo
[14] = system: housefly; assay: Larvicidal activity; type: in vivo
[15] = system: bean beetle; assay: Larvicidal activity; type: in vivo
[16] = system: mosquito larvae; assay: Larvicidal activity; type: in vivo
[17] = system: KB cells; assay: KB monolayer cytotoxicity test; type: cell-based, human
[18] = system: crown rust of oats; assay: Fungicidal activity; type: in vivo; settings: spraying as 25% wettable powder
[19] = system: wood decay organisms; assay: Fungicidal activity; type: in vivo; settings: spraying as 25% wettable powder

SMILES: C/C=C/[C@H]1O[C@@](O)([C@@H](C)[C@H](O)[C@H](C)[C@H]2OC(=O)/C(OC)=C/C(C)=C/[C@@H](C)[C@@H](O)[C@@H](CC)[C@@H](O)[C@H](C)C/C(C)=C/C=C/[C@@H]2OC)C[C@@H](O[C@H]2C[C@@H](O)[C@H](OC(N)=O)[C@@H](C)O2)[C@@H]1C
- solubility ([1]; in 95% ethanol): 47.5 mg/mL (≈ 54800 µM)
- solubility ([1]; in acetone): > 100 mg/mL
- solubility ([1]; in benzyl alcohol): > 100 mg/mL
- solubility ([1]; in dimethylformamide): > 100 mg/mL
- solubility ([1]; in glycerine): < 1 mg/mL
- solubility ([1]; in methanol): > 100 mg/mL
- solubility ([1]; in polyethylene glycol 400): < 1 mg/mL
- solubility ([1]; in propylene glycol): < 1 mg/mL
- solubility ([1]; in tetrahydrofuran): > 100 mg/mL
- solubility ([1]; in water): < 1 mg/mL
- 24 hour acute toxicity (LD50) ([2]; i.p.): 2.45 mg/kg
- 24 hour acute toxicity (LD50) ([2]; p.o.): 21 mg/kg
- MIC value [3]: 1.11 µg/mL (≈ 1.28 µM)
- MIC value [4]: 3.33 µg/mL (≈ 3.84 µM)
- MIC value [5]: 3.33 µg/mL (≈ 3.84 µM)
- MIC value [6]: 3.33 µg/mL (≈ 3.84 µM)
- activity against Piricularia oryzae [7]: active
- fungicidal activity [7]: exhibits fungicidal activity
- activity against Puccinia species [8]: active
- activity against Uromyces species [9]: active
- fungicidal activity ([10]; grey mold, spraying as 25% wettable powder): exhibits fungicidal activity
- activity against Botrytis cinerea ([10]; on several crops): active
- activity against Rhizoctonia solani [11]: active
- larvicidal activity [12]: excellent activity
- larvicidal activity ([12]; spraying on leaves): exhibits larvicidal activity
- larvicidal activity [13]: excellent activity
- larvicidal activity [14]: excellent activity
- larvicidal activity [15]: excellent activity
- larvicidal activity ([15]; spraying on leaves): exhibits larvicidal activity
- larvicidal activity ([16]; mosquito larvae): excellent activity
- larvicidal activity ([16]; mosquito, spraying): exhibits larvicidal activity
- ID50 [17]: 0.0045 µg/mL (≈ 0.0052 µM)
- fungicidal activity [18]: exhibits fungicidal activity
- fungicidal activity [19]: exhibits fungicidal activity
